In data set [1] the target is 72 kDa type IV collagenase (Homo sapiens, UniProt P08253). As to the kind of experiment: Inhibition of gelatinase A (unknown origin) after 30 mins by spectrophotometry.
A further data set concerns the target T1, Aminopeptidase N (Sus scrofa, UniProt P15145).
T1 sequence (P15145 whole entry): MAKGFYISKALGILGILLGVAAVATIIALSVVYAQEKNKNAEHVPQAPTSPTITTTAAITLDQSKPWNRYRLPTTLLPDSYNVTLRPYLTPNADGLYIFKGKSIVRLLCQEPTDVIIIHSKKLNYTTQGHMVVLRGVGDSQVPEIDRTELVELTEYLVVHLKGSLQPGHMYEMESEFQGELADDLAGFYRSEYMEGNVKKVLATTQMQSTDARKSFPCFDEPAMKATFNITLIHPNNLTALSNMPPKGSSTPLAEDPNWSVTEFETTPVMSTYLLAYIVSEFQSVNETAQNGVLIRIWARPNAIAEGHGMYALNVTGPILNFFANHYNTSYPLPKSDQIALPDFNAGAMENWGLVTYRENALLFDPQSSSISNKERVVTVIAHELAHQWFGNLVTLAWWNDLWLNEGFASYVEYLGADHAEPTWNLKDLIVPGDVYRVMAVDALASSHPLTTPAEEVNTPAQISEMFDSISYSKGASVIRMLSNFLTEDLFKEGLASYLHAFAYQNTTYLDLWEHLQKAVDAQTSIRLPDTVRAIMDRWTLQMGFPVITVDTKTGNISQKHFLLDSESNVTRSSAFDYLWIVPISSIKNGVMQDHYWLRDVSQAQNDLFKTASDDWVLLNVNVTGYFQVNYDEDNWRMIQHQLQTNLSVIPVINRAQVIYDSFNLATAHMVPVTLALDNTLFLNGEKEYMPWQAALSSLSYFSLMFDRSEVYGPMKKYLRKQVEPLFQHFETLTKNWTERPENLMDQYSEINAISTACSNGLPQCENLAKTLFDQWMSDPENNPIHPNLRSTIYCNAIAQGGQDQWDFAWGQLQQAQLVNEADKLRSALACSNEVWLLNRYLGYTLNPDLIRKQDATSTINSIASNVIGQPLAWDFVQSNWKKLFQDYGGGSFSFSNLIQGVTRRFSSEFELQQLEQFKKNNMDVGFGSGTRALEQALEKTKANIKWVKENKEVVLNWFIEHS
As to the kind of experiment: Inhibition of pig kidney microsomal APN using L-Leu-p-nitroanilide as substrate preincubated for 30 mins by UV-vis spectrophotometry.

In a further data set the test system is Mus musculus. In words: Toxicity in […] cells xenografted Kunming mouse assessed as change in body weight at 50 mg/kg, po administered 6 days a week for two consecutive weeks (reference value: 26.03 +/- 5.04 grams). It counts as organism-based. Details: dose 50 mg/kg, route oral. Particulars: in vivo, 144 h.
Data set [2] relates to H22. As to the kind of experiment: Antimetastatic activity in […] cells xenografted Kunming mouse assessed as lung weight at 50 mg/kg, po administered 6 days a week for two consecutive weeks (reference value: 0.223 +/- 0.067 grams). It counts as functional.
Another data set concerns K562. In words: Antiproliferative activity against human K562 cells after 48 hrs by MTT assay. It counts as functional, cell-based.
For a further data set, the system named is SK-OV-3. As to the kind of experiment: Antiproliferative activity against human SKOV3 cells after 48 hrs by MTT assay. The following applies: SK-OV-3, 48 h. It counts as functional, cell-based.
Another data set relates to HL-60. As to the kind of experiment: Antiproliferative activity against human HL60 cells after 48 hrs by MTT assay. It counts as functional, cell-based.
The subject of data set [3] is H22. As to the kind of experiment: Antimetastatic activity in […] cells xenografted Kunming mouse assessed as inhibition of tumor nodules formation at 50 mg/kg, po administered 6 days a week for two consecutive weeks. It counts as functional. The following applies: H22, 144 h.

Active and inactive are the calls of the source. The rule behind the calls is not given here.

From ChEMBL document CHEMBL3091273, “Sulphonamide 1,4-dithia-7-azaspiro[4,4]nonane derivatives as gelatinase A inhibitors” (Bioorg Med Chem, 2013) come the findings set out here.

Sequence of 72 kDa type IV collagenase (P08253 whole entry): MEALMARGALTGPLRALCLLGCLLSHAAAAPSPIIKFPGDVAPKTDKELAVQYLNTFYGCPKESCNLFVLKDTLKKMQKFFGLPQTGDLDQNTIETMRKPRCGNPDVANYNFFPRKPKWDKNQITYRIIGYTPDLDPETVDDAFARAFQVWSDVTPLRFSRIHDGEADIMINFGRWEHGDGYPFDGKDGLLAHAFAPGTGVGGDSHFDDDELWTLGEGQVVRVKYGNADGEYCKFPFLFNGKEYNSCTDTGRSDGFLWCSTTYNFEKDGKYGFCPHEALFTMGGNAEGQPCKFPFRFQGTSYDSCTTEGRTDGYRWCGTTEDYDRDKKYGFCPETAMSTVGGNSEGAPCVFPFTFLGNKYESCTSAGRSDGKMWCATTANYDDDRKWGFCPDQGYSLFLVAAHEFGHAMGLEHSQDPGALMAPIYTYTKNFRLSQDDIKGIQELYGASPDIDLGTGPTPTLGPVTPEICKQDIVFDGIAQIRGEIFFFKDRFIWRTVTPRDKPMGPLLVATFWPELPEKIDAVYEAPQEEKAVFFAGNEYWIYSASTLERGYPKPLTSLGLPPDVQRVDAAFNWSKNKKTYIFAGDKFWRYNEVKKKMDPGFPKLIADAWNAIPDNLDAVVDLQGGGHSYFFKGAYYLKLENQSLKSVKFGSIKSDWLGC

In the case of `COC(=O)[C@@H]1CC2(CN1S(=O)(=O)c1ccccc1)SCCS2`, the concentration for half-maximal inhibition (IC50) is 3090 nM in data set [1] and “Not Active” against Aminopeptidase N.
For `COc1ccc(S(=O)(=O)N2CC3(C[C@H]2C(=O)NNC(=O)Cc2ccccc2)SCCS3)cc1`, the IC50 in data set [1] was 386 nM; on Aminopeptidase N, “Not Active”.
`O=C(Cc1ccccc1)NNC(=O)[C@@H]1CC2(CN1S(=O)(=O)c1ccc([N+](=O)[O-])cc1)SCCS2`: the figures for the half-maximal inhibitory concentration (IC50) (in data set [1]; on Aminopeptidase N) were 1800 nM and “Not Active”, respectively.
`CCOC(=O)CNC(=O)[C@@H]1CC2(CN1S(=O)(=O)c1ccc(OC)cc1)SCCS2`: the IC50 in data set [1] was 325 nM; on Aminopeptidase N, “Not Active”.
Taken in the same sequence, the figures for `CCOC(=O)CNC(=O)[C@@H]1CC2(CN1S(=O)(=O)c1ccc(C)cc1)SCCS2` were 530 nM and “Not Active”.
With `CCOC(=O)CNC(=O)[C@@H]1CC2(CN1S(=O)(=O)c1ccc([N+](=O)[O-])cc1)SCCS2`, the half-inhibitory concentration (IC50) in data set [1] was 325 nM; against Aminopeptidase N, “Not Active”.
With `NNC(=O)[C@@H]1CC2(CN1S(=O)(=O)c1ccc([N+](=O)[O-])cc1)SCCS2`, the half-inhibitory concentration (IC50) in data set [1] was 20600 nM; against Aminopeptidase N, “Not Active”.
Taken in the same sequence, the figures for `Cc1ccc(S(=O)(=O)N2CC3(C[C@H]2C(=O)O)SCCS3)cc1` were 2780 nM and “Not Active”.
Taken in the same sequence, the figures for `O=C(NO)[C@@H]1CC2(CN1S(=O)(=O)c1ccc([N+](=O)[O-])cc1)SCCS2` were 786 nM and “Not Active”.
For the compound `O=C(Cc1ccccc1)NNC(=O)[C@@H]1CC2(CN1S(=O)(=O)c1ccccc1)SCCS2`, the IC50 was 5440 nM in data set [1] and “Not Active” against Aminopeptidase N.
Turning to `COc1ccc(/C=C/C(=O)N2CC(NC(=O)c3cccnc3)CC2C(=O)NO)cc1OC` (configuration not stated), the figures for the half-maximal inhibitory concentration (IC50) (in data set [1]; against Aminopeptidase N) were 1020 nM and “Not Active”, respectively.
For the compound `O=C(O)[C@@H]1CC2(CN1S(=O)(=O)c1ccc([N+](=O)[O-])cc1)SCCS2`, the values for the Activity in the data set with Mus musculus and in the data set with H22 [2] were 25.59 g and 0.288 g, respectively. Further, the IC50 in data set [1] is 835 nM; against Aminopeptidase N it was “Not Active”; with SK-OV-3, 210000 nM. Moreover, the result with K562 and in the data set with HL-60 was inactive. For the same compound, the inhibition in vivo at 50 mg/kg with H22 [3] came out at 26.3%.
With `COC(=O)[C@@H]1CC2(CN1S(=O)(=O)c1ccc(OC)cc1)SCCS2`, the 50% inhibitory concentration (IC50) is 7480 nM in data set [1] and “Not Active” at Aminopeptidase N.
For `COc1ccc(S(=O)(=O)N2CC3(C[C@H]2C(=O)NN)SCCS3)cc1`, the concentration for half-maximal inhibition (IC50) in data set [1] is 10800 nM; against Aminopeptidase N, “Not Active”.
Taken in the same sequence, the figures for `NNC(=O)[C@@H]1CC2(CN1S(=O)(=O)c1ccccc1)SCCS2` were 6560 nM and “Not Active”.
As for `COc1ccc(S(=O)(=O)N2CC3(C[C@H]2C(=O)NO)SCCS3)cc1`, the results for the IC50 (in data set [1]; against Aminopeptidase N) were 516 nM and “Not Active”, respectively.
For `O=C(O)[C@@H]1CC2(CN1S(=O)(=O)c1ccccc1)SCCS2`, the IC50 is 28200 nM in data set [1] and “Not Active” at Aminopeptidase N.
For the compound `O=C(NO)[C@@H]1CC2(CN1S(=O)(=O)c1ccccc1)SCCS2`, the 50% inhibitory concentration (IC50) is 877 nM in data set [1] and “Not Active” at Aminopeptidase N.
For the compound `Cc1ccc(S(=O)(=O)N2CC3(C[C@H]2C(=O)NNC(=O)Cc2ccccc2)SCCS3)cc1`, the Activity in the data set on Mus musculus came to 27.9 g; in the data set on H22 [2] it was 0.27 g. The values for the IC50 (in data set [1]; at Aminopeptidase N; in the data set on SK-OV-3) were 679 nM, “Not Active” and 150000 nM, respectively. The result in the data set on K562 and in the data set with HL-60 was inactive. The inhibition in vivo at 50 mg/kg with H22 [3] amounted to 34.3%.
As to `Cc1ccc(S(=O)(=O)N2CC3(C[C@H]2C(=O)NO)SCCS3)cc1`, the IC50 in data set [1] is 678 nM; on Aminopeptidase N, “Not Active”.
The like results for `COc1ccc(S(=O)(=O)N2CC3(C[C@H]2C(=O)O)SCCS3)cc1` were, in that order, 9480 nM and “Not Active”.
As for `Cc1ccc(S(=O)(=O)N2CC3(C[C@H]2C(=O)NN)SCCS3)cc1`, the results for the half-maximal inhibitory concentration (IC50) (in data set [1]; at Aminopeptidase N) were 429000 nM and “Not Active”, respectively.
As to `COC(=O)[C@@H]1CC2(CN1S(=O)(=O)c1ccc(C)cc1)SCCS2`, the values for the IC50 (in data set [1]; against Aminopeptidase N) were 878 nM and “Not Active”, respectively.
As to `CCOC(=O)CNC(=O)[C@@H]1CC2(CN1S(=O)(=O)c1ccccc1)SCCS2`, the IC50 was 678 nM in data set [1] and “Not Active” against Aminopeptidase N.
As to `COC(=O)[C@@H]1CC2(CN1S(=O)(=O)c1ccc([N+](=O)[O-])cc1)SCCS2`, the concentration for half-maximal inhibition (IC50) in data set [1] was 77900 nM; on Aminopeptidase N it was “Not Active”.
